Test in all cases: in vitro antibacterial activity, agar plate dilution method (MIC)
Common to all, as to format: cell-based

For one test, the system named is E. coli NIHJ JC2. As to conditions: Escherichia coli, NIHJJC2, 16 h, read-out: Minimum Inhibitory Concentration (MIC). The procedure:
(§1) One platinum loopfull of each test microorganism incubated overnight in Mueller Hinton broth, was inoculated to Mueller Hinton agar (inoculum size: 10^6 CFU/ml). Such culture media containing various antibiotics in various concentrations were prepared. After incubation at 37° C. for 16 hours, the minimum inhibitory concentrations (MIC: μg/ml) were measured.

For another test, the system named is E. cloacae 963. As to conditions: Enterobacter cloacae, 963, 16 h, read-out: Minimum Inhibitory Concentration (MIC). As to the method: as §1
A further test deals with K. pneumoniae PCI-602. As to conditions: Klebsiella pneumoniae, PCI602, 16 h, read-out: Minimum Inhibitory Concentration (MIC). As to the method:
as §1

Another test deals with S. aureus 209P NIHJ-JCl. As to conditions: Staphylococcus aureus, 209P, 16 h, read-out: Minimum Inhibitory Concentration (MIC). The procedure:
as §1

In another test the test system is S. marcescens IAM 1184. As to conditions: Serratia marcescens, IAM1184, 16 h, read-out: Minimum Inhibitory Concentration (MIC). The procedure: as §1
The next test concerns P. vulgaris HX-19. As to conditions: Proteus vulgaris, HX19, 16 h, read-out: Minimum Inhibitory Concentration (MIC). The procedure:
as §1

Each structure is given as a SMILES string.

In the case of `NC(=O)c1ccc(COC2=C(C(=O)[O-])N3C(=O)[C@@H](NC(=O)/C(=N\OCC(=O)[O-])c4csc(N)n4)[C@H]3SC2)cc1.[Na+].[Na+]` [Example 22, Disodium 7β-[2-(2-aminothiazol-4-yl)-(Z)-2-carboxylatomethoxyiminoacetamido]-3-(4-carbamoylbenzyloxy)-3-cephem-4-carboxylate], the MIC in the test on E. coli NIHJ JC2 came to 0.05 µg/mL; in the test with E. cloacae 963, 0.1 µg/mL; in the test with K. pneumoniae PCI-602, 0.025 µg/mL; with S. aureus 209P NIHJ-JCl, 50 µg/mL; in the test with S. marcescens IAM 1184, 0.0125 µg/mL; in the test on P. vulgaris HX-19, 0.025 µg/mL.

Values taken from patent US4918070A, “Cephalosporin derivatives and antibacterial agents” (Banyu Pharmaceutical Co., Ltd., priority 1987, dated 1990).
